36 compounds from US5668165A, “Small molecule inhibition of RNA/ligand binding” (Scriptgen Pharmaceuticals, Inc., priority 1995, dated 1997) can be followed below.

Assay [1] addresses T1, binding of HIV Rev protein to the HIV RRE (Human immunodeficiency virus type 1 group M subtype B, UniProt P04618).
T1 construct: made in house; host or cells: E. coli
The experiment in a line: Rev-RRE nitrocellulose filter-binding assay. On the procedure: A 69-nt ^32 P-labelled RNA probe containing a high affinity Rev-binding site (Bartel et al., Cell 67:529, 1991 ) was incubated with purified E. coli-derived Rev protein in the absence and presence of increasing concentrations of Compound 15. Reactions conditions were those that maximize the specificity of the interaction between Rev and the RRE, i.e., 150 mM KCl and a 100-fold molar excess of tRNA.
After a 30-minute incubation at room temperature, a nitrocellulose filter-binding assay was performed to quantify the binding of Rev to the RRE (Daly et al., Biochem. 32:10497, 1993). In this assay, RNA is retained on the filter only by virtue of binding to Rev. Filter-associated radioactivity was quantified in a Wallac Microbeta counter. The fraction of input RNA retained on the filter was plotted as a function of Compound 15 concentration, and the IC50 (the concentration required to inhibit 50% Rev-RRE binding) was determined by linear regression.

Assay [2] concerns binding of Rev to the RRE (67-nt RNA probe containing a high affinity Rev-binding site). Also noted: species or system HIV. The settings on record: for concentration at which inhibitory to Rev binding: third group of aminoglycosides; for inhibiting the binding of Rev to the RRE: Rev/RRE binding inhibition assay, summary of thirteen 2-DOS aminoglycosides; for ability to inhibit Rev binding (inhibitory at any concentration tested): 67-nt 32P-labeled RNA probe, gel mobility shift. On the procedure:
To test whether antibiotics can block binding of Rev to the RRE, a 67-nt ^32 P-labeled RNA probe containing a high affinity Rev-binding site was incubated with purified E. coli derived Rev protein in the presence of various antibiotics. Binding of Rev to the RNA probe was quanitified by an RNA gel mobility shift assay.

[3] abbreviates: Table 2, 2,5-Bis(3-amidinophenyl)furans, read-out: IC50 against Rev/RRE binding.

pIC50: −log10 of the molar value. Entries after “also recorded” stand apart in the source; their conditions may differ. Read-outs that look alike come from different tables or passages of the source. Starred links: 1 amine or outer side, 2 acyl side, 3 side chain; linkers in the order of their positions; H or OH if unused. Positions of bridges follow the written chain, without caps; N, C: chain ends. Non-standard residues stand in square brackets, D forms with d. Residues, ends and D or L forms follow the SMILES beside them. *: point of attachment. X1 = NC1=N[C@@H]([C@H](N[*:1])C(=O)[*:2])C[C@H](O)N1; ΔAla(Z-3-ureido) = NC(=O)N/C=C(\N)C(=O)O; β3hOrn = NCCC[C@H](N)CC(=O)*; Dap = NC[C@H](N)C(=O)O

T1 sequence (P04618 whole entry, looked up): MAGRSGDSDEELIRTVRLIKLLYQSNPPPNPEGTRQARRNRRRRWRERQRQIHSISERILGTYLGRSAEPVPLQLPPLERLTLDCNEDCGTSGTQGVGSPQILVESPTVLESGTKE

With `CN(C)CCCNC(=N)c1cccc(-c2ccc(-c3cccc(C(=N)NCCCN(C)C)c3)o2)c1` [Example 15, 2,5-Bis [3-(3-N,N-dimethylaminopropylamidino)phenyl]furan], in assay [1] (FIG. 2, 150 mM KCl, 100-fold molar excess of tRNA, read-out: IC50 (concentration required to inhibit 50% Rev-RRE binding)), the pIC50 is 6.00.
For `CCN(CC)CCCNC(=N)c1cccc(-c2ccc(-c3cccc(C(=N)NCCCN(CC)CC)c3)o2)c1` [Example 16, 2,5-Bis[3-N,N-diethylaminopropylamidinophenyl]furan], in assay [1] (setting [3]), the pIC50 was 6.12.
`CN(C)CCCCNC(=N)c1cccc(-c2ccc(-c3cccc(C(=N)NCCCCN(C)C)c3)o2)c1` [Example 17, 2,5-Bis[3-(4-N,N-dimethylaminobutyl-amidino)phenyl]furan]: the pIC50 in assay [1] (setting [3]) is 5.77.
As to `CN(C)CCCCCCNC(=N)c1cccc(-c2ccc(-c3cccc(C(=N)NCCCCCCN(C)C)c3)o2)c1` [Example 18, 2,5-Bis[3-(6-N,N-dimethylaminohexylamidino)phenyl]furan], the pIC50 in assay [1] (setting [3]) is 5.41.
Still for that read-out and setting: the value for `c1cc(C2=NCCN2)cc(-c2ccc(-c3cccc(C4=NCCN4)c3)o2)c1` [Example 19, 2,5-Bis(3-imidazolinophenyl)furan] was 5.40.
For the compound `N=C(NCc1cccnc1)c1cccc(-c2ccc(-c3cccc(C(=N)NCc4cccnc4)c3)s2)c1` [Example 20, 2,5-Bis[3-pyridylmethylamidinophenyl]thiophene], the “IC50 against Rev/RRE binding” value in assay [1] (Table 3, 2,5-Bis(3-bisamidinophenyl)thiophene) is recorded as “not active”.
For `CN1CCCC1CCNC(=N)c1cccc(-c2ccc(-c3cccc(C(=N)NCCC4CCCN4C)c3)s2)c1` (stereo not shown) [Example 21, 2,5-Bis{3-[2-(1-methyl-2-pyrrolidinyl)ethylamidino]phenyl}thiophene], in assay [1] (Table 3, 2,5-Bis(3-bisamidinophenyl)thiophene, read-out: IC50 against Rev/RRE binding), the pIC50 is 5.62.
Regarding `NCC[C@H](O)C(=O)N[C@@H]1C[C@H](N)[C@@H](O[C@H]2O[C@H](CN)[C@@H](O)[C@H](O)[C@H]2O)[C@H](O)[C@H]1O[C@H]1O[C@H](CO)[C@@H](O)[C@H](N)[C@H]1O` [amikacin], in assay [2] (67-nt RNA probe), the “concentration at which inhibitory to Rev binding” value (shortened to “concentration at which inhibitory”) is given as 100 μm. Further, in assay [2], the “inhibiting the binding of Rev to the RRE” value was “effective”.
Turning to `CC1(C)S[C@@H]2[C@H](NC(=O)[C@H](N)c3ccccc3)C(=O)N2[C@H]1C(=O)O` [ampicilin], in assay [2], the “ability to inhibit Rev binding (inhibitory at any concentration tested)” value (“ability to inhibit Rev binding” for short) was “no”.
Take `CC1(C)S[C@@H]2[C@H](NC(=O)C(C(=O)O)c3ccccc3)C(=O)N2[C@H]1C(=O)O` (stereo partly shown) [carbenicilin]: the “ability to inhibit Rev binding” value in assay [2] is given as “no”.
`O=C(N[C@H](CO)[C@H](O)c1ccc([N+](=O)[O-])cc1)C(Cl)Cl` [chloramphenicol]: the “ability to inhibit Rev binding” value in assay [2] is “no”.
As to `CCC[C@@H]1C[C@@H](C(=O)N[C@@H]([C@H]2O[C@H](SC)[C@H](O)[C@@H](O)[C@H]2O)[C@H](C)Cl)N(C)C1` [clindamycin A], the “ability to inhibit Rev binding” value in assay [2] is reported as “no”.
Still for that read-out and setting: the entry for `CN[C@@H]1[C@H](O[C@H]2[C@H](O[C@H]3[C@H](O)[C@@H](O)[C@H](NC(=N)N)[C@@H](O)[C@@H]3NC(=N)N)O[C@@H](C)[C@]2(O)CO)O[C@@H](CO)[C@H](O)[C@H]1O` [dihydrostreptomycin] is “no inhibitory activity at any concentration tested”; for `Cn1cc(NC(=O)c2cc(NC(=O)c3cc(NC=O)cn3C)cn2C)cc1C(=O)NCCC(=N)N` [distamycin A] it is “no”.
On the same count and under the same terms, the value for `CC[C@H]1OC(=O)[C@H](C)[C@@H](O[C@H]2C[C@@](C)(OC)[C@@H](O)[C@H](C)O2)[C@H](C)[C@@H](O[C@@H]2O[C@H](C)C[C@H](N(C)C)[C@H]2O)[C@](C)(O)C[C@@H](C)C(=O)[C@H](C)[C@@H](O)[C@]1(C)O` [erythromycin] was “no”; that for `CN[C@H]1C[C@@H](N)[C@H](O)[C@@H](O[C@@H]2O[C@H](CO)[C@H](O)[C@@H]3OC4(O[C@H]23)O[C@H]([C@@H](N)CO)[C@H](O)[C@H](O)[C@H]4O)[C@@H]1O` (stereo partly shown) [hygromyoin B, hygromycin B] was “no inhibitory activity at any concentration tested”.
In the case of `NC[C@H]1O[C@H](O[C@H]2[C@H](O)[C@@H](O[C@H]3O[C@H](CO)[C@@H](O)[C@H](N)[C@H]3O)[C@H](N)C[C@@H]2N)[C@H](N)[C@@H](O)[C@@H]1O` [kanamycin B], in assay [2] (67-nt RNA probe), the “concentration at which inhibitory” value worked out at 100 μm. Moreover, the “inhibiting the binding of Rev to the RRE” value in assay [2] is on record as “effective”.
As to `C[C@H]1O[C@H](O[C@H]2[C@H](O)[C@@H](O)[C@@H](O)[C@H](O)[C@@H]2O)[C@@H](N)C[C@@H]1NC(=N)C(=O)O` [kasugamycin], in assay [2], the “ability to inhibit Rev binding” value was “no inhibitory activity at any concentration tested”.
Still for that read-out and setting: the value for `CCC[C@@H]1C[C@@H](C(=O)N[C@@H]([C@H]2O[C@H](SC)[C@H](O)[C@@H](O)[C@H]2O)[C@@H](C)O)N(C)C1` [lincomycin] was “no”.
Consider `NC[C@@H]1O[C@H](O[C@H]2[C@@H](O)[C@H](O[C@@H]3[C@@H](O)[C@H](N)C[C@H](N)[C@H]3O[C@H]3O[C@H](CO)[C@@H](O)C[C@H]3N)O[C@@H]2CO)[C@H](N)[C@@H](O)[C@@H]1O[C@H]1O[C@H](CO)[C@@H](O)[C@H](O)[C@@H]1O` [lividomycin A], for which, in assay [2], the “ability to inhibit Rev binding” value was “significant inhibitory ability” and the “inhibiting the binding of Rev to the RRE” value is “exceptional inhibitory potential”. The “concentration that achieves inhibition of Rev binding” value in assay [2] (67-nt RNA probe, neomycin B: complete inhibition) came to 10 µM.
Turning to `NC[C@H]1O[C@H](O[C@H]2[C@H](O)[C@@H](O)[C@H](N)C[C@@H]2N)[C@H](N)[C@@H](O)[C@@H]1O` [neamine], the “concentration at which inhibitory” value in assay [2] (67-nt RNA probe) worked out at 100 μm. In addition, the “inhibiting the binding of Rev to the RRE” value in assay [2] is listed as “effective”.
With `NC[C@@H]1O[C@H](O[C@H]2[C@@H](O)[C@H](O[C@@H]3[C@@H](O)[C@H](N)C[C@H](N)[C@H]3O[C@H]3O[C@H](CO)[C@@H](O)[C@H](O)[C@H]3N)O[C@@H]2CO)[C@H](N)[C@@H](O)[C@@H]1O` [paromomycin], in assay [2], the “ability to inhibit Rev binding” value was “no inhibitory activity at any concentration tested; also recorded: completely inactive”.
On to `NC[C@H]1O[C@H](O[C@H]2[C@H](O[C@@H]3O[C@H](CO)[C@@H](O)[C@H]3O)[C@@H](O)[C@H](N)C[C@@H]2N)[C@H](N)[C@@H](O)[C@@H]1O` [ribostamycin], for which the “concentration at which inhibitory” value in assay [2] (67-nt RNA probe) worked out at 100 μm. Also, in assay [2], the “inhibiting the binding of Rev to the RRE” value is listed as “effective”.
The matching figures for `CN[C@@H]1[C@@H](O)[C@@H](O[C@@H]2[C@@H](O)[C@H](O[C@H]3OC(CN)=CC[C@H]3N)[C@@H](N)C[C@H]2N)OC[C@]1(C)O` [sisomicin]: 100 μm and “effective”.
In the case of `CN[C@@H]1[C@H](O)[C@H](NC)[C@H]2O[C@@]3(O)C(=O)C[C@@H](C)O[C@H]3O[C@@H]2[C@H]1O` [specitinomycin], the “ability to inhibit Rev binding” value in assay [2] was “no inhibitory activity at any concentration tested”; in assay [2] (listed as spectinoymycin), “inactive”.
Turning to `[H]/N=C(/N)N[C@H]1[C@H](O)[C@@H](O)[C@H](O[C@@H]2O[C@@H](C)[C@](O)(C=O)[C@H]2O[C@@H]2O[C@@H](CO)[C@H](O)[C@@H](O)[C@@H]2NC)[C@@H](N/C(N)=N\[H])[C@@H]1O` [stretomycin, streptomycin], the “ability to inhibit Rev binding” value in assay [2] was “no inhibitory activity at any concentration tested”; in assay [2] (listed as streptomycin) it was “inactive”.
In the case of `CN(C)[C@@H]1C(=O)C(C(N)=O)=C(O)[C@@]2(O)C(=O)C3=C(O)c4c(O)cccc4[C@@](C)(O)[C@H]3C[C@@H]12` [tetracycline], the “ability to inhibit Rev binding” value in assay [2] is “no”.
Still for that read-out and setting: the entry for `NCCC[C@H](N)CC(=O)N[C@H]1CNC(=O)[C@H]([C@H]2C[C@H](O)NC(N)=N2)NC(=O)/C(=C/NC(N)=O)NC(=O)[C@H](CO)NC(=O)[C@H](CO)NC1=O` [viomycin] (β3hOrn-[Dap]SS[ΔAla(Z-3-ureido)][X1]; lactam 1-C) is “no”; for butirosin it is “no inhibitory activity at any concentration tested”; for capreomycin it is “no”.
Regarding chromomycin A, the “ability to inhibit Rev binding” value in assay [2] was “no”.
For gentamicin C, the “concentration at which inhibitory” value in assay [2] (67-nt RNA probe) was determined as 100 μm. For the same compound, in assay [2], the “inhibiting the binding of Rev to the RRE” value is on record as “effective”.
For olivomycin, the “ability to inhibit Rev binding” value in assay [2] is recorded as “no”.
On the same count and under the same terms, the entry for thiostreption is “no”; for tunicamycin it is “no”.
Still for that read-out and setting: the entry for vineomycin is “no”.
